Experimental data reported in patent publication US20230097992A1, “BIVALENT EGF FUSION TOXINS” (The Regents of the University of Colorado, a body corporate, priority 2020, published 2023).

Key:
[1] = test system: HNSCC Cal27 subcutaneous xenografts; test: Flank-xenograft solid tumor-bearing NSG mouse model; format: in vivo, NSG mice; details: for Median survival time: Subcutaneous xenograft model, fusion toxin or DT390 50 μg/kg IP, erlotinib 20 mg/kg gavage, once daily for 10 days from day 4
Text: FIGS. 6A-6D presents the data from in vivo efficacy analysis of the human EGF fusion toxins against subcutaneous xenografts in NSG mice from two animal studies. FIG. 6A depicts the survival curve for NSG mice injected with Cal27 cells. […] FIGS. 6B-D depict tumor volume and weight data from the second study performed with a second cohort of NSG mice. […] Mice were euthanized on day 14 after tumor cell injection, when the first mouse in the DT390 group reached the end point. FIG. 6B: Tumor volumes were measured periodically, and the growth kinetics of the four groups were plotted. FIG. 6B depicts the tumor growth kinetics for a period of 14 days. FIG. 6C presents a bar graph representing the tumor weights at day 14. FIG. 6D depicts images of harvested tumors on day 14. Scale bar: 1 cm. FIGS. 6A-6C: *P<0.05; **P<0.01; ***P<0.001; ****P<0.0001; ns: not significant. The P-values for the survival curves in FIG. 6A were calculated using the Mantel-Cox log-rank test and that for the comparisons in FIGS. 6B and C were calculated using the two-tailed Student t-test (GraphPad Prism 9.0.0).
HNSCC tumor cells were injected via the following routes: 1) Flank-xenograft solid tumor model: eight million human HNSCC Cal27 tumor cells were subcutaneously injected into the right flank at day 0. The tumor-bearing mice were randomly divided into the four experimental groups when the tumors were palpable at day 3. The tumor volume was measured using digital vernier calipers every 3 days and calculated according to the formula: volume (mm^3)=(length×width×width)/2. 2) Tongue-orthotopic solid tumor model: eight million human HNSCC Cal27 tumor cells in 50 μl DMEM were injected into the tongue at day 0 following isoflurane anesthesia and the tumor-bearing mice were randomly divided into the planned four experimental groups at day 3. 3) Experimental metastasis model: one million human HNSCC Cal27 tumor cells in 200 μl DMEM were intravenously injected at day 0 via tail vein and the tumor-bearing mice were randomly divided into the four experimental groups at day 3.
Mono-EGF-IT (mEGF-IT), bEGF-IT, or DT390 was intraperitoneally injected (IP) starting at day 4 at 50 μg/kg, once daily for 10 consecutive days. […] The injected animals were observed daily for signs and symptoms of illness and scored at least twice weekly based on the parameters as previously reported (Peraino et al. (2013), J. Immunol. Methods 398-399, 33-43, which is hereby incorporated by reference in its entirety; Wang et al., 2015). The animals were humanely euthanized when the score exceeded the limit or the animal lost more than 15% of its pre-injection body weight. In addition, to assess whether the fusion toxins are toxic to the animals, NSG mice injected with the fusion toxins only were also included as control.
In vivo efficacy of the mEGF-IT and bEGF-IT against HNSCC was assessed using three immunodeficient tumor-bearing NSG mouse models. The first in vivo efficacy model was a flank-xenograft solid tumor-bearing NSG mouse model. Eight million Cal27 tumor cells were injected subcutaneously (SQ) into the right flank at day 0. The EGF fusion toxins were injected intraperitoneally (IP) starting on day 4 at 50 μg/kg daily for 10 consecutive days. […] The reduction of the tumor volumes, weights and sizes (FIGS. 6B-6D) were all consistent with the median survival prolongation.

[2] = test system: residual Cal27 tumor cells; test: CellTiter-Glo Luminescent Cell Viability Assay, residual Cal27 tumor cells; format: cell-based, human; details: residual Cal27 cells from flank xenografts at day 14 after bEGF-IT 50 μg/kg once daily for 10 days
Text: FIGS. 13A-C present in vitro binding affinity and efficacy analysis of the bEGF-IT to the residual Cal27 tumor cells. FIG. 13A: Flow cytometry binding affinity analysis of the bEGF-IT to the residual Cal27 tumor cells. The data were representative of three individual experiments. FIG. 13B: KD determination of the bEGF-IT to the residual Cal27 tumor cells using flow cytometry and nonlinear least squares fit. FIG. 13C: In vitro efficacy analysis of the bEGF-IT to the residual Cal27 tumor cells using CellTiter-Glo® Luminescent Cell Viability Assay. bEGF-IT group (green line); Anti-murine PD-1 immunotoxin group as negative control (blue line). Data were from three individual experiments. Error bars indicate SD.
The tumor was removed from the sacrificed flank-xenograft solid tumor-bearing mice and washed with PBS twice in sterile manner. Then the tumor sample was cut into small pieces (approximately 1 mm^3) on the lid of a petri dish and washed with PBS. The tissue pellet was resuspended in DMEM tissue culture medium and cultured in the T25 flask. After several days of culture, the tissue residues were removed and the residual tumor cells were cultured as parent Cal27 tumor cell line.
It was hypothesized that the residual tumor cells were still sensitive to the human EGF fusion toxin treatment. […]

[3] = test system: human EGFR-positive HNSCC cell line UMSCC47; test: CellTiter-Glo Luminescent Cell Viability Assay, UMSCC47; format: cell-based; details: read-out: IC50 to HNSCC cell lines (Erlotinib)
Description: (§1) FIG. 9 presents the data from in vitro efficacy analysis of the human EGF fusion toxins against human EGFR-positive HNSCC cell lines using CellTiter-Glo® Luminescent Cell Viability Assay (Promega) Y-axis: inhibition rate of the cell viability by determining the number of viable cells based on the quantification of the ATP present. X-axis: plated fusion toxin concentration. Cycloheximide (1.25 mg/mL) was used as a positive control. The negative control contained cells without fusion toxin. Data were from three individual experiments for each HNSCC cell line. Error bars indicate SD.
(§2) Y-axis: inhibition rate of the cell viability by determining the number of viable cells based on the quantification of the ATP present. […] Cycloheximide (1.25 mg/mL) was used as a positive control. […]
(§3) In vitro efficacy analysis of the human EGF fusion toxins (mEGF-IT and bEGF-IT) to the human HNSCC tumor cell lines was performed using CellTiter-Glo® Luminescent Cell Viability Assay (Promega Corporation, Madison, Wis.) as described previously (Zheng et al. (2017), Mol. Oncol. 11, 584-594, which is hereby incorporated by reference in its entirety). This cell viability assay measures the luminescence produced because of ATP production from metabolically active cells. […] The luminescence signals were recorded using BioTek Synergy LX Multi-Mode Reader.
(§4) IC50 was determined using nonlinear regression (curve fit) of Prism. […]

[4] = test system: human EGFR-positive HNSCC cell line UMSCC1; test: CellTiter-Glo Luminescent Cell Viability Assay, UMSCC1; format: cell-based; details: UMSCC1, read-out: IC50 to HNSCC cell lines (Erlotinib)
Description: as §1, §2, §3, §4

[5] = test system: 14 human EGFR-positive HNSCC cell lines; test: CellTiter-Glo in vitro efficacy, all examined HNSCC cell lines together; format: cell-based
Description: Cycloheximide (1.25 mg/mL) was used as a positive control. […] Data were from three individual experiments for each HNSCC cell line.
In vitro efficacy of the human EGF fusion toxins against HNSCC cell lines were assessed using CellTiter-Glo® Luminescent Cell Viability Assay.

Row | Compound | Median survival time [1] [days] | Median survival time ([1]; listed as bEGF-IT) [days] | decrease of tumor sizes and weights ([1]; flank xenograft, second cohort, day 14) | IC50 [2] [nM] | IC50 [3] [nM] | IC50 [4] [nM] | in vitro efficacy against the examined HNSCC cell lines [5]
1 | Bi-EGF IT: DT390 joined by G4S to two human EGF domains linked by (G4S)3, C-terminal 6×His tag; SEQ ID NO: 10 | >60 | 61 | about 80% | 0.0562 |  |  | 
2 | C#Cc1cccc(Nc2ncnc3cc(OCCOC)c(OCCOC)cc23)c1 [Erlotinib] | >60 |  |  |  | 4120 | 2460 | effective in vitro against all 14 examined HNSCC tumor cell lines
